Results as given in ChEMBL document CHEMBL4219224, “Structure based drug design and in vitro metabolism study: Discovery of N-(4-methylthiophenyl)-N,2-dimethyl-cyclopenta[d]pyrimidine as a potent microtubule targeting agent” (Bioorg Med Chem, 2018).

Experiments:
Format in all cases: functional
[1] = system: TK-10; experiment: Growth inhibition of human TK10 cells incubated for 48 hrs by sulforhodamine B assay; conditions: TK-10, 48 h
[2] = system: M14; experiment: Growth inhibition of human M14 cells incubated for 48 hrs by sulforhodamine B assay; conditions: M14, 48 h
[3] = system: Hs-578T; experiment: Growth inhibition of human Hs578T cells incubated for 48 hrs by sulforhodamine B assay
[4] = system: IGROV-1; experiment: Growth inhibition of human IGROV1 cells incubated for 48 hrs by sulforhodamine B assay; conditions: IGROV-1, 48 h
[5] = system: UO-31; experiment: Growth inhibition of human UO31 cells incubated for 48 hrs by sulforhodamine B assay; conditions: UO-31, 48 h
[6] = system: HT-29; experiment: Growth inhibition of human HT-29 cells incubated for 48 hrs by sulforhodamine B assay; conditions: HT-29, 48 h
[7] = system: BT-549; experiment: Growth inhibition of human BT549 cells incubated for 48 hrs by sulforhodamine B assay; conditions: BT-549, 48 h
[8] = system: NCI-H522; experiment: Growth inhibition of human NCI-H522 cells incubated for 48 hrs by sulforhodamine B assay; conditions: NCI-H522, 48 h
[9] = system: MDA-MB-231; experiment: Growth inhibition of human MDA-MB-231 cells incubated for 48 hrs by sulforhodamine B assay; conditions: MDA-MB-231, 48 h
[10] = system: SW-620; experiment: Growth inhibition of human SW620 cells incubated for 48 hrs by sulforhodamine B assay; conditions: SW-620, 48 h
[11] = system: OVCAR-8; experiment: Growth inhibition of human OVCAR8 cells incubated for 48 hrs by sulforhodamine B assay; conditions: OVCAR-8, 48 h
[12] = system: SK-OV-3; experiment: Growth inhibition of human SKOV3 cells incubated for 48 hrs by sulforhodamine B assay; conditions: SK-OV-3, 48 h
[13] = system: SF-295; experiment: Growth inhibition of human SF295 cells incubated for 48 hrs by sulforhodamine B assay; conditions: SF-295, 48 h
[14] = system: RXF 393; experiment: Growth inhibition of human RXF393 cells incubated for 48 hrs by sulforhodamine B assay; conditions: RXF 393, 48 h
[15] = system: ACHN; experiment: Growth inhibition of human ACHN cells incubated for 48 hrs by sulforhodamine B assay
[16] = system: SR; experiment: Growth inhibition of human SR cells incubated for 48 hrs by sulforhodamine B assay
[17] = system: HOP-62; experiment: Growth inhibition of human HOP62 cells incubated for 48 hrs by sulforhodamine B assay; conditions: HOP-62, 48 h
[18] = system: PC-3; experiment: Growth inhibition of human PC3 cells incubated for 48 hrs by sulforhodamine B assay; conditions: PC-3, 48 h
[19] = system: KM12; experiment: Growth inhibition of human KM12 cells incubated for 48 hrs by sulforhodamine B assay; conditions: KM12, 48 h
[20] = system: RPMI-8226; experiment: Growth inhibition of human RPMI8226 cells incubated for 48 hrs by sulforhodamine B assay; conditions: RPMI-8226, 48 h
[21] = system: OVCAR-5; experiment: Growth inhibition of human OVCAR5 cells incubated for 48 hrs by sulforhodamine B assay; conditions: OVCAR-5, 48 h
[22] = system: HOP-92; experiment: Growth inhibition of human HOP92 cells incubated for 48 hrs by sulforhodamine B assay; conditions: HOP-92, 48 h
[23] = system: SK-MEL-28; experiment: Growth inhibition of human SK-MEL-28 cells incubated for 48 hrs by sulforhodamine B assay; conditions: SK-MEL-28, 48 h
[24] = system: U-251; experiment: Growth inhibition of human U251 cells incubated for 48 hrs by sulforhodamine B assay; conditions: U-251, 48 h
[25] = system: MCF7; experiment: Growth inhibition of human MCF7 cells incubated for 48 hrs by sulforhodamine B assay; conditions: MCF7, 48 h
[26] = system: 786-0; experiment: Growth inhibition of human 786-0 cells incubated for 48 hrs by sulforhodamine B assay; conditions: 786-0, 48 h
[27] = system: SF-539; experiment: Growth inhibition of human SF539 cells incubated for 48 hrs by sulforhodamine B assay; conditions: SF-539, 48 h
[28] = system: NCI-H226; experiment: Growth inhibition of human NCI-H226 cells incubated for 48 hrs by sulforhodamine B assay; conditions: NCI-H226, 48 h
[29] = system: NCI/ADR-RES; experiment: Growth inhibition of human NCI/ADR-RES cells incubated for 48 hrs by sulforhodamine B assay
[30] = system: EKVX; experiment: Growth inhibition of human EKVX cells incubated for 48 hrs by sulforhodamine B assay
[31] = system: COLO 205; experiment: Growth inhibition of human COLO205 cells incubated for 48 hrs by sulforhodamine B assay; conditions: COLO 205, 48 h
[32] = system: SK-MEL-2; experiment: Growth inhibition of human SK-MEL-2 cells incubated for 48 hrs by sulforhodamine B assay; conditions: SK-MEL-2, 48 h
[33] = system: HCT-15; experiment: Growth inhibition of human HCT15 cells incubated for 48 hrs by sulforhodamine B assay; conditions: HCT-15, 48 h
[34] = system: NCI-H322M; experiment: Growth inhibition of human NCI-H322M cells incubated for 48 hrs by sulforhodamine B assay
[35] = system: SN12C; experiment: Growth inhibition of human SN12C cells incubated for 48 hrs by sulforhodamine B assay
[36] = system: UACC-62; experiment: Growth inhibition of human UACC62 cells incubated for 48 hrs by sulforhodamine B assay; conditions: UACC-62, 48 h
[37] = system: SF-268; experiment: Growth inhibition of human SF268 cells incubated for 48 hrs by sulforhodamine B assay; conditions: SF-268, 48 h
[38] = system: SNB-75; experiment: Growth inhibition of human SNB75 cells incubated for 48 hrs by sulforhodamine B assay; conditions: SNB-75, 48 h
[39] = system: A498; experiment: Growth inhibition of human A498 cells incubated for 48 hrs by sulforhodamine B assay; conditions: A498, 48 h
[40] = system: OVCAR-3; experiment: Growth inhibition of human OVCAR3 cells incubated for 48 hrs by sulforhodamine B assay; conditions: OVCAR-3, 48 h
[41] = system: A549; experiment: Growth inhibition of human A549/ATCC cells incubated for 48 hrs by sulforhodamine B assay; conditions: A549, 48 h
[42] = system: SNB-19; experiment: Growth inhibition of human SNB19 cells incubated for 48 hrs by sulforhodamine B assay; conditions: SNB-19, 48 h
[43] = system: OVCAR-4; experiment: Growth inhibition of human OVCAR4 cells incubated for 48 hrs by sulforhodamine B assay; conditions: OVCAR-4, 48 h
[44] = system: SK-MEL-5; experiment: Growth inhibition of human SK-MEL-5 cells incubated for 48 hrs by sulforhodamine B assay; conditions: SK-MEL-5, 48 h
[45] = system: DU-145; experiment: Growth inhibition of human DU145 cells incubated for 48 hrs by sulforhodamine B assay; conditions: DU-145, 48 h
[46] = system: HCT-116; experiment: Growth inhibition of human HCT116 cells incubated for 48 hrs by sulforhodamine B assay; conditions: HCT-116, 48 h
[47] = system: NCI-H460; experiment: Growth inhibition of human NCI-H460 cells incubated for 48 hrs by sulforhodamine B assay; conditions: NCI-H460, 48 h
[48] = system: HL-60(TB); experiment: Growth inhibition of human HL-60(TB) cells incubated for 48 hrs by sulforhodamine B assay; conditions: HL-60, 48 h
[49] = system: LOX IMVI; experiment: Growth inhibition of human LOXIMVI cells incubated for 48 hrs by sulforhodamine B assay
[50] = system: K562; experiment: Growth inhibition of human K562 cells incubated for 48 hrs by sulforhodamine B assay; conditions: K562, 48 h
[51] = system: CAKI-1; experiment: Growth inhibition of human Caki1 cells incubated for 48 hrs by sulforhodamine B assay; conditions: CAKI-1, 48 h
[52] = system: CCRF-CEM; experiment: Growth inhibition of human CCRF-CEM cells incubated for 48 hrs by sulforhodamine B assay
[53] = system: MOLT-4; experiment: Growth inhibition of human MOLT4 cells incubated for 48 hrs by sulforhodamine B assay; conditions: MOLT-4, 48 h
[54] = system: MDA-MB-435; experiment: Growth inhibition of human MDA-MB-435 cells incubated for 48 hrs by sulforhodamine B assay; conditions: MDA-MB-435, 48 h
[55] = system: Malme-3M; experiment: Growth inhibition of human MALME-3M cells incubated for 48 hrs by sulforhodamine B assay
[56] = system: NCI-H23; experiment: Growth inhibition of human NCI-H23 cells incubated for 48 hrs by sulforhodamine B assay; conditions: NCI-H23, 48 h
[57] = system: HCC 2998; experiment: Growth inhibition of human HCC2998 cells incubated for 48 hrs by sulforhodamine B assay; conditions: HCC 2998, 48 h
[58] = system: MDA-MB-468; experiment: Growth inhibition of human MDA-MB-468 cells incubated for 48 hrs by sulforhodamine B assay; conditions: MDA-MB-468, 48 h

Compound `CC(=O)O[C@H]1C(=O)[C@@]2(C)[C@H]([C@H](OC(=O)c3ccccc3)[C@]3(O)C[C@H](OC(=O)[C@H](O)[C@@H](NC(=O)c4ccccc4)c4ccccc4)C(C)=C1C3(C)C)[C@]1(OC(C)=O)CO[C@@H]1C[C@@H]2O` [PACLITAXEL] has a GI50 [1] of 19.9 nM, a GI50 [2] of 5 nM and a GI50 [3] of 5 nM. For the same compound, the GI50 [4] was 6.3 nM, the GI50 [5] was 125 nM and the GI50 [6] was 5 nM. The GI50 [7] was 4 nM, the GI50 [8] was 15.8 nM and the GI50 [9] was 12.5 nM. For the same compound, the GI50 [10] was 4 nM, the GI50 [11] was 7.9 nM and the GI50 [12] was 6.3 nM. The GI50 [13] was 25 nM, the GI50 [14] was 15.8 nM and the GI50 [15] was 158 nM. The GI50 [16] was 6.3 nM, the GI50 [17] was 19 nM and the GI50 [18] was 6.3 nM. It also gave a GI50 [19] of 5 nM, a GI50 [20] of 19.9 nM and a GI50 [21] of 7.9 nM. The GI50 [22] was 25 nM, the GI50 [23] was 400 nM and the GI50 [24] was 6.3 nM. For the same compound, the GI50 [25] was 4 nM, the GI50 [26] was 39 nM and the GI50 [27] was 5 nM. It also gave a GI50 [28] of 3.9 nM, a GI50 [29] of 630 nM and a GI50 [30] of 79 nM. It also gave a GI50 [31] of 7.9 nM, a GI50 [32] of 400 nM and a GI50 [33] of 125 nM. It also gave a GI50 [34] of 12.5 nM, a GI50 [35] of 6.3 nM and a GI50 [36] of 5 nM. It also gave a GI50 [37] of 5 nM, a GI50 [38] of 7.9 nM and a GI50 [39] of 7.9 nM. The GI50 [40] was 4 nM, the GI50 [41] was 6.3 nM and the GI50 [42] was 10 nM. The GI50 [43] was 630 nM, the GI50 [44] was 5 nM and the GI50 [45] was 6.3 nM. The GI50 [46] was 4 nM, the GI50 [47] was 6.3 nM and the GI50 [48] was 4 nM. The GI50 [49] was 5 nM, the GI50 [50] was 6.3 nM and the GI50 [51] was 158 nM. It also gave a GI50 [52] of 5 nM, a GI50 [53] of 5 nM and a GI50 [54] of 4 nM. For the same compound, the GI50 [55] was 50 nM, the GI50 [56] was 6.3 nM and the GI50 [57] was 1 nM. It also gave a GI50 [58] of 12.5 nM.
